Laboratory results published in US10668000B2, “Peptides, compositions comprising them and uses in particular cosmetic uses” (SEDERMA, priority 2014, dated 2020).
Like-named read-outs stand apart in the source and are kept apart here. Where a SMILES comes first, the peptide text is derived from it. The star is where a group is joined. Myristoyl = CCCCCCCCCCCCCC(=O)*

Legend:
Elastin [1] = test: ELISA assay of elastin synthesis in normal human fibroblasts; type: cell-based; settings: NHF, 72 h
Description: (§1) Normal human fibroblasts (NHF) in culture are contacted with the products to be tested or their excipient (negative control) for 72 h. After the contact, the culture supernatants are removed and the synthesis of dermal macromolecules are estimated by ELISA assays. An estimation of cell viability is performed by Hoechst assay and used to weight the obtained data.

Collagen I [2] = test: Immunofluorescence dosage of collagen I in normal human fibroblasts; type: cell-based; settings: NHF, 6 days
Description: (§2) Normal human fibroblasts (NHF) are cultured for 24 h. The cells are contacted or not with the products to be tested or their excipient at various concentrations for 6 days for the collagen I or 14 days for elastin (DMEMc 5% FCS). The synthesis of collagen I and elastin produced by the cells in the form of extracellular matrix is then quantified by immuno-marking on the fixed layers. A counting of the nuclei labeled with Hoechst is performed in parallel in order to have an estimate of the viability and in order to weight the data.

neutral lipids = test: Marking of neutral lipids with red oil in keratinocytes; type: cell-based, human; settings: for Neutral lipids % variation: red oil marking, human keratinocytes
Text: (§3) Human keratinocytes are brought to just confluence in KSFMc medium. The contact with the actives and therefore their evaluation is then done in KSFMc medium alone or with calcium (0.8 mm)*. Visual evaluation of differentiation takes place after several days of contact (2, 4, 8 days/3, 5 and 7 for example). * Calcium differentiation allows the creation of link structure between the cells which leads to a better attachment of the basal layers.
On the same cultures as presented before, a marking of neutral lipids with red oil is realised on the fixed layers. Quantification by image analysis is used to estimate lipid synthesis in keratinocytes. A counter-colouration of the nucleus using Hoechst dye is used to weight the obtained data.

Elastin [3] = test: Immunofluorescence dosage of elastin in normal human fibroblasts; type: cell-based; settings: NHF, 14 days
Description: as §2

filaggrin 1 = test: Filaggrin 1 immunolabeling in keratinocytes; type: cell-based, human; settings: for Filagrin 1 % variation: immunolabeling, human keratinocytes
Text: as §3
(§4) On the same cultures as those presented before, immunolabeling of filaggrin 1 and ceramides are realised on layers fixed with specific antibodies. Quantification by image analysis is used to estimate the synthesis of these targets in keratinocytes. A counter-colouration of the nucleus using Hoechst dye is used to weight the obtained data.

Laminin = test: ELISA assay of laminin synthesis in normal human fibroblasts; type: cell-based; settings: NHF, 72 h
Description: as §1

Collagen I [4] = test: ELISA assay of collagen I synthesis in normal human fibroblasts; type: cell-based; settings: NHF, 72 h
Description: as §1

Ceramide 2 = Ceramide 2 immunolabeling in keratinocytes; type: cell-based, human; settings: for Ceramide 2 % variation: immunolabeling, human keratinocytes
Text: as §3, §4

Collagen IV = test: ELISA assay of collagen IV synthesis in normal human fibroblasts; type: cell-based; settings: NHF, 72 h
Description: as §1

Fibronectin = test: ELISA assay of fibronectin synthesis in normal human fibroblasts; type: cell-based; settings: NHF, 72 h
Description: as §1

collagen = settings: cited from earlier work
[5] = at the level of the differentiation networks

CCCCCCCCCCCCCC(=O)N1CCC[C@H]1C(=O)N1CCC[C@H]1C(=O)N[C@@H](CC(C)C)C(=O)O [Myr-PPL-OH, myristoyl-prolyl-prolyl-leucine] (Myristoyl-Pro-Pro-Leu-OH)
Elastin % change/control (Elastin [1]; 5 ppm): +86% | Elastin % change/control (Elastin [1]; 7 ppm): +137% | Collagen I % change/control (Collagen I [2]; 3 ppm): +68% | Collagen I % change/control (Collagen I [2]; 7 ppm): +95% | Neutral lipids % variation (neutral lipids; 4 ppm): +394 (p < 0.01) % | Neutral lipids % variation (neutral lipids; 6 ppm): +570 (p < 0.01) % | neutral lipids in the human keratinocytes (neutral lipids; [5]): increases | Elastin % change/control (Elastin [3]; 2 ppm): +183% | Elastin % change/control (Elastin [3]; 3 ppm): +259% | Elastin % change/control (Elastin [3]; 7 ppm): +145% | Filagrin 1 % variation (filaggrin 1; 2 ppm): +564 (p < 0.01) % | Filagrin 1 % variation (filaggrin 1; 4 ppm): +840 (p < 0.01) % | Filagrin 1 % variation (filaggrin 1; 6 ppm): +172 (p < 0.01) % | filaggrin 1 in the human keratinocytes (filaggrin 1; [5]): increases | Laminin % change/control (Laminin; 1 ppm): +29% | Laminin % change/control (Laminin; 3 ppm): +83% | Laminin % change/control (Laminin; 5 ppm): +53% | Laminin % change/control (Laminin; 7 ppm): +41% | Collagen I % change/control (Collagen I [4]; 1 ppm): +34% | Collagen I % change/control (Collagen I [4]; 3 ppm): +59% | Collagen I % change/control (Collagen I [4]; 5 ppm): +87% | Ceramide 2 % variation (Ceramide 2; 2 ppm): +137 (nsd) % | Ceramide 2 % variation (Ceramide 2; 4 ppm): +240 (p < 0.01) % | Ceramide 2 % variation (Ceramide 2; 6 ppm): +268 (p < 0.01) % | ceramides in the human keratinocytes (Ceramide 2; [5]): increases | Collagen IV % change/control (Collagen IV; 1 ppm): +38% | Collagen IV % change/control (Collagen IV; 3 ppm): +51% | Collagen IV % change/control (Collagen IV; 5 ppm): +83% | Collagen IV % change/control (Collagen IV; 7 ppm): +159% | Fibronectin % change/control (Fibronectin; 3 ppm): +73% | Fibronectin % change/control (Fibronectin; 5 ppm): +41% | Fibronectin % change/control (Fibronectin; 7 ppm): +66%

Asn-Ile-Pro-Pro-Leu (NIPPL) [pentapeptide of WO 2010/071132 derived from fermented milk]
collagen production by fibroblastes with regard to the control (collagen; concentration of about 55 ppm): about +30%

Ile-Pro-Pro-Leu (IPPL) [tetrapeptide of WO 2010/071132 derived from fermented milk]
collagen production by fibroblastes with regard to the control (collagen; concentration of about 44 ppm): about +10%
